{"source": "patent US20230255970A1", "about": "“COMPOSITIONS AND METHODS FOR TREATING PROLIFERATIVE DISEASES” (The Broad Institute, Inc., priority 2020, published 2023)", "key": {"[1]": {"test_system": "HT-1080 fibrosarcoma cells", "experiment": "Proliferation assay, HT-1080 cells", "type": "cell-based, human", "conditions": "10 μM daily for 72 hours", "from_the_text": "(§1) YAP1 cell culture and treatments: Eisinger lab: Murine KP230 cells, a Yap1-dependent cancer cell line, were derived from a tumor from the KP mouse model (Kras^G12/D; Trp53^f/fl), as described in Eisinger-Mathason, T. S. K. et al., Proc. Natl. Acad. Sci. U.S.A 112 (2015): E3402-11, which is hereby incorporated by reference in its entirety. STS-109 UPS cells were derived from a human UPS tumor and validated by Rebecca Gladdy, MD (Sinai Health System, Toronto, Ontario, Canada). TC32 cells were a gift from Patrick Grohar, MD, PhD (Children's Hospital of Philadelphia). HT-1080, HCT-116, and HEK293T cells were purchased from ATCC. KP230, HT-1080, and HEK-293T cells were grown in DMEM with 10% FBS, 1% L-glutamine, and 1% penicillin/streptomycin (P/S). STS-109 cells were cultured in DMEM with 20% FBS, 1% L-glutamine, and 1% P/S. TC32 cells were grown in RPMI with 10% FBS, 1% L-glutamine, and 1% P/S. HCT-116 cells were cultured in McCoy's 5A medium with 10% FBS and 1% P/S. All cells were confirmed to be negative for mycoplasma contamination and were maintained in an incubator at 37C with 5% CO2. […]\n(§2) NB4A treatment: Cells were treated with 10 μM of each inhibitor or an equivalent volume of DMSO every 24 hours for 3-8 days, and counted with a hemocytometer with trypan blue exclusion daily (KP230, HT-1080, TC32, HCT-116), or every 2 days (STS-109)."}, "[2]": {"test_system": "YAP1 overexpression in U2OS cells", "experiment": "Cell Painting morphological profile matching to YAP1/TAZ overexpression signature", "type": "cell-based, human", "method_in_brief": "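Morphological profiles from Cell Painting (six fluorescent labels) in a single cell line at one time point, standardized plate-wise against control mean and SD, replicate profiles averaged feature-wise. Gene and compound signatures scored by Pearson correlation, large positive or negative correlations counted as matches.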"}, "[3]": {"test_system": "Yap1", "experiment": "Nuclear Yap1 immunofluorescence in KP230 cells", "type": "cell-based, mouse", "from_the_text": "as §1, with “(P/S).” for “(P/S). STS-109 cells were cultured in DMEM with 20% FBS, 1% L-glutamine, and 1% P/S. TC32 cells were grown in RPMI with 10% FBS, 1% L-glutamine, and 1% P/S. HCT-116 cells were cultured in McCoy's 5A medium with 10% FBS and 1% P/S. All cells were confirmed to be negative for mycoplasma contamination and were maintained in an incubator at 37C with 5% CO2.”\nYAP1-related immunofluorescence and image analysis: Cells were grown on poly-L-lysine-coated chamber slides were fixed in 4% PFA (15 minutes at room temperature), permeabilized with 0.5% Triton-X100/PBS (15 minutes at room temperature), and blocked with 5% goat serum (Vector Laboratories S-1000; 1 hour at room temperature). […] The ratio of nuclear to total Yap1 expression was determined after subtracting out background GFP signal from no-primary antibody controls."}, "[4]": {"test_system": "KP230, TC32, STS-109, HT-1080, HCT-116 cells", "experiment": "Trypan blue staining toxicity in the proliferation assay cell lines", "type": "cell-based", "conditions": "all tested cell lines", "protocol": "as §2"}, "[5]": {"test_system": "KP230 cells", "experiment": "Proliferation assay, KP230 cells", "type": "cell-based, mouse", "conditions": "10 μM daily for 72 hours", "from_the_text": "YAP1 cell culture and treatments: Eisinger lab: Murine KP230 cells, a Yap1-dependent cancer cell line, were derived from a tumor from the KP mouse model (Kras^G12/D; Trp53^f/fl), as described in Eisinger-Mathason, T. S. K. et al., Proc. Natl. Acad. Sci. U.S.A 112 (2015): E3402-11, which is hereby incorporated by reference in its entirety. STS-109 UPS cells were derived from a human UPS tumor and validated by Rebecca Gladdy, MD (Sinai Health System, Toronto, Ontario, Canada). TC32 cells were a gift from Patrick Grohar, MD, PhD (Children's Hospital of Philadelphia). HT-1080, HCT-116, and HEK293T cells were purchased from ATCC. KP230, HT-1080, and HEK-293T cells were grown in DMEM with 10% FBS, 1% L-glutamine, and 1% penicillin/streptomycin (P/S). STS-109 cells were cultured in DMEM with 20% FBS, 1% L-glutamine, and 1% P/S. TC32 cells were grown in RPMI with 10% FBS, 1% L-glutamine, and 1% P/S. HCT-116 cells were cultured in McCoy's 5A medium with 10% FBS and 1% P/S. All cells were confirmed to be negative for mycoplasma contamination and were maintained in an incubator at 37C with 5% CO2. For experimental purposes, cells were cultured for up to 20 passages before being discarded, and were grown to approximately 50% confluence to circumvent the effects of high cell density on Yap1 expression and activity. All cell lines in the Eisinger laboratory were treated with 10 μM of each inhibitor or an equivalent volume of DMSO every 24 hours for 3 days, except for STS-109 cells, which were treated daily for 8 days.\nas §2"}, "[6]": {"test_system": "TEAD luciferase reporter", "experiment": "YAP1-responsive TEAD luciferase reporter assay in HEK293T cells", "type": "cell-based", "conditions": "10 μM, 48 h, HEK-293 cells", "protocol": "A TEAD luciferase reporter was co-transfected with or without a Yap expression construct into HEK293T cells followed by treatment for 48 hours with DMSO or the indicated compounds. The data shown are the average of three samples within a representative experiment.\nYAP1-related reporter assay: HEK293T cells were co-transfected using Lipofectamine 3000 (Thermo Fisher) with a TEAD luciferase reporter construct, 8×GTIIC-luciferase (Addgene plasmid #34615), a plasmid expressing Renilla Luciferase from a CMV promoter as a transfection control, along with a plasmid expressing 3×Flag-tagged wild-type YAP1 from a CMV promoter (pCMV5 backbone). Following transfection the cells were immediately treated with 0.2% DMSO, 10 μM NB4A, BRD-K34692511 or BRD-K28862419 and then lysed 48 hours later. Lysates were examined using the Dual-Luciferase Reporter Assay System (Promega) according to the manufacturer's protocol and measured using a SpectraMax iD3 plate reader (Molecular Devices). Firefly Luciferase activity from the TEAD reporter was normalized to Renilla Luciferase activity and then plotted as relative values."}, "[7]": {"test_system": "U2OS cells", "experiment": "Cell count in U2OS Cell Painting images", "type": "cell-based, human", "conditions": "U2OS Cell Painting", "method_in_brief": "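Compound-treated U2OS cells were stained with six fluorescent labels and imaged, and morphological profiles were standardized plate-wise against controls. Replicate profiles were averaged into signatures. Compound and gene-overexpression signatures were matched by Pearson correlation.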"}}}
{"smiles": "c1ccc(CNc2ncnc3ccccc23)cc1", "note": "[BRD-K43796186, N-benzylquinazolin-4-amine]", "values": [{"measurement": "proliferation", "setting": "[1]", "result": "did not affect the proliferation"}, {"measurement": "Cell Painting profile correlation with YAP1 overexpression", "setting": "[2]", "result": 0.46}, {"measurement": "Corr. to YAP1 cluster", "setting": "[2]; Pearson correlation of Cell Painting signatures, U2OS cells", "result": 0.4622}, {"measurement": "Yap1 nuclear localization", "setting": "[3]", "result": "significantly attenuated"}, {"measurement": "toxicity by trypan blue staining", "setting": "[4]", "result": "did not exhibit overt toxicity"}, {"measurement": "proliferation", "setting": "[5]", "result": "inhibited the proliferation"}, {"measurement": "YAP1-responsive (TEAD) reporter activity", "setting": "[6]", "result": "no effect"}, {"measurement": "Avg. Cell Count z-score", "setting": "[7]", "result": "−0.5708"}]}
